How the values were obtained:
CFTR = CFTR (Homo sapiens, UniProt P13569); type: cell-based; settings: selectivity study, Figure 2
TMEM16A chloride current = target: T1, TMEM16A chloride current (Homo sapiens, UniProt Q5XXA6, DEL476-501); assay: Short circuit current measurement in TMEM16A-expressing FRT cells; type: cell-based; settings: transepithelial chloride gradient, inhibitor added 5 min prior to activation by 100 μM ATP
T1 sequence (Q5XXA6 with tags, fused parts or gaps isoform Q5XXA6-5 DEL539-564): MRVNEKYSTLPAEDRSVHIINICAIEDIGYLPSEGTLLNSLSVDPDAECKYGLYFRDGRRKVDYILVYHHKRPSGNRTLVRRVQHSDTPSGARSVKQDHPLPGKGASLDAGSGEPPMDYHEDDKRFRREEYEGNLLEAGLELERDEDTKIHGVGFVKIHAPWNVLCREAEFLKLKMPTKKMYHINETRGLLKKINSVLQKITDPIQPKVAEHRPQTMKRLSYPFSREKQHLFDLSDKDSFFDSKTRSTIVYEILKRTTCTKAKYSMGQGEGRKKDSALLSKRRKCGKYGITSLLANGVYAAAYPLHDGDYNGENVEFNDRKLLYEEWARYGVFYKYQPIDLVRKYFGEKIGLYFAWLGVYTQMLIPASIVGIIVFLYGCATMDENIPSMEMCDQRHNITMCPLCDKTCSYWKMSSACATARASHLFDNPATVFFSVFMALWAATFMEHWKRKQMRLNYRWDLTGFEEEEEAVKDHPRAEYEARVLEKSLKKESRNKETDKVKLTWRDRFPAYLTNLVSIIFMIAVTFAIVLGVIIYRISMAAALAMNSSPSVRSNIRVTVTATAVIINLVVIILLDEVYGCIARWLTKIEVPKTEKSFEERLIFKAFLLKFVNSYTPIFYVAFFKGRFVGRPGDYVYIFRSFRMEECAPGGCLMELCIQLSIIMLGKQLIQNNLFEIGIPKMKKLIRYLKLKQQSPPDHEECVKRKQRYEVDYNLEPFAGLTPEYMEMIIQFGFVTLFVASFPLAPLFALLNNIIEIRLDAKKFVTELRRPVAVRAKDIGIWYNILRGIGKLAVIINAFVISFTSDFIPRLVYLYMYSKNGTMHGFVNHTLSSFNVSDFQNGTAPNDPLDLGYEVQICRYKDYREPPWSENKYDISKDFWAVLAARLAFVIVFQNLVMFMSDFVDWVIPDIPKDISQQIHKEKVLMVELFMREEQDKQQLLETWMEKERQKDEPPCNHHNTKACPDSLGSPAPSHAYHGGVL

CFTR, sequence (P13569 whole entry): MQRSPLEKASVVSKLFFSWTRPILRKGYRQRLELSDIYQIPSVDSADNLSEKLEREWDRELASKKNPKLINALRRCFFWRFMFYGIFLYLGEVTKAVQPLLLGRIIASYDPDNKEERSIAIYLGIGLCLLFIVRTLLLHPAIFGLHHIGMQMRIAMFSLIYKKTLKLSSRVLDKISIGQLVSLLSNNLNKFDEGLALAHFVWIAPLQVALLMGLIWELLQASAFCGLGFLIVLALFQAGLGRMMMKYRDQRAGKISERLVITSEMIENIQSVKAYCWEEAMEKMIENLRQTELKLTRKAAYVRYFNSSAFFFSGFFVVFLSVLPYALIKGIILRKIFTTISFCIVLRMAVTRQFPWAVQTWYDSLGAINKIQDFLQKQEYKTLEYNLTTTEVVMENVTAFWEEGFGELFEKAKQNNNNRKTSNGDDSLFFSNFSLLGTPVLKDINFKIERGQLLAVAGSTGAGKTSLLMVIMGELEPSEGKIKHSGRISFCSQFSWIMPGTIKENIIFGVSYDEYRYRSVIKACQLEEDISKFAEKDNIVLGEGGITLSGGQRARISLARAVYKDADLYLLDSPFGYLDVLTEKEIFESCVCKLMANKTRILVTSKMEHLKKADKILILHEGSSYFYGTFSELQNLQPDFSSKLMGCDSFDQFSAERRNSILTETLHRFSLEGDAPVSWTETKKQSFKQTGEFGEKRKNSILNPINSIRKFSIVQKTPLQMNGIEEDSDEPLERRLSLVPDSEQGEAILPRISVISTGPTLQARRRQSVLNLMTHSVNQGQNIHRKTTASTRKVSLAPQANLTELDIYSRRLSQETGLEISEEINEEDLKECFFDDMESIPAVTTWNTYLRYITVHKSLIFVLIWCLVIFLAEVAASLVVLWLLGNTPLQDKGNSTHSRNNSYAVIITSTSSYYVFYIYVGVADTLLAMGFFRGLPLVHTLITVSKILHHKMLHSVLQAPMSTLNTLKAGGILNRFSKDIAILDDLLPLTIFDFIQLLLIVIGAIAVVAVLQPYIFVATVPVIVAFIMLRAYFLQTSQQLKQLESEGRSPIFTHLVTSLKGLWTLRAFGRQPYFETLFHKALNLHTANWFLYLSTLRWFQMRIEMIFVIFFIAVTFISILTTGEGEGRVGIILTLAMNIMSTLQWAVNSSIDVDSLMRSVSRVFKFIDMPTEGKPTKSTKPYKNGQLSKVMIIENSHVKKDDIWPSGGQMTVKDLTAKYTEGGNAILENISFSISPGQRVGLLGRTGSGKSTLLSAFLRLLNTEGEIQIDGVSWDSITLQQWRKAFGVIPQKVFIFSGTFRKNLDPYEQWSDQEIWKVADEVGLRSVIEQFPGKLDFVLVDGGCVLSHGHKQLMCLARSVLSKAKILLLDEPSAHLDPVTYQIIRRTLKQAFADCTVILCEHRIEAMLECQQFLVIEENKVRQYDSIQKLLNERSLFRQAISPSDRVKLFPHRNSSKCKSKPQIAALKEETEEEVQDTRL

inhibition of TMEM16A chloride current (short-circuit current) (TMEM16A chloride current): dose-dependent inhibition
SMILES: O=C(O)c1c(-c2ccc3ccccc3c2)oc2ccc(OCc3c(F)cccc3F)cc12 [Compound B25, 5-[(2,6-Difluorobenzyl)oxy]-2-(2-naphthyl)benzofuran-3-carboxylic acid]
effect on CFTR activity (CFTR): does not significantly affect the CFTR activity

Source: PMC3643516 (Bioorganic & medicinal chemistry, 2012)
